Reference: PubChem BioAssay (NCI)
“And” between values parts separate entries of the source, which are not always exact repeats. Equal entries are not always repeated.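 Cells were grown in 96-well plates and exposed to each compound for 48 hours at five concentrations; endpoints were interpolated linearly between bracketing concentrations, or set to the highest concentration if not reached. GI50 marks 50% less growth. Definition used: TGI = concentration required for complete inhibition of growth.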

Columns and labels:
Assay in all cases: growth of human tumour cells (NCI), 48 h
BT-549 breast = tested on: BT-549 breast
EKVX NSCLC = tested on: EKVX NSCLC
SNB-75 CNS = tested on: SNB-75 CNS
HCT-15 colon = tested on: HCT-15 colon
CCRF-CEM leukemia = tested on: CCRF-CEM leukemia
A549 NSCLC = tested on: A549 NSCLC
HOP-92 NSCLC = tested on: HOP-92 NSCLC
SF-268 CNS = tested on: SF-268 CNS
HCT-116 colon = tested on: HCT-116 colon
SN12C renal = tested on: SN12C renal

| Structure (SMILES) | GI50 (BT-549 breast) [µM] | TGI (BT-549 breast) [µM] | GI50 (EKVX NSCLC) [µM] | TGI (EKVX NSCLC) [µM] | GI50 (SNB-75 CNS) [µM] | TGI (SNB-75 CNS) | GI50 (HCT-15 colon) [µM] | TGI (HCT-15 colon) | TGI (CCRF-CEM leukemia) [µM] | GI50 (A549 NSCLC) [µM] | TGI (A549 NSCLC) [µM] | GI50 (HOP-92 NSCLC) [µM] | TGI (HOP-92 NSCLC) | GI50 (SF-268 CNS) [µM] | TGI (SF-268 CNS) | GI50 (HCT-116 colon) [µM] | TGI (HCT-116 colon) | GI50 (SN12C renal) [µM] | TGI (SN12C renal) | GI50 (CCRF-CEM leukemia) [µM] |
| --- | --- | --- | --- | --- | --- | --- | --- | --- | --- | --- | --- | --- | --- | --- | --- | --- | --- | --- | --- | --- |
| CC(C)(C)OC(=O)NCCCCCCCCn1c2c(c3ccccc3c1=O)C(=O)c1ccccc1-2 | 15.6 | > 50 | 43.5 | > 50 | 10.6 | 29.2 µM | > 50 | > 50 µM | > 11.4 | > 50 | > 50 | 9.05 | 21 µM | 19.5 | > 50 µM | 26.8 | > 50 µM | > 50 | > 50 µM |  |
| COc1ccc(C2NCCc3c2[nH]c2ccccc32)cc1CN1CCN(c2ccc(F)cc2)CC1 (stereo not given) | 7.55 | 20 |  |  | 1.25 | 2.52 µM | 1.61 | 3.06 µM | 7.19 | 2.9 | 9.29 | 2 | 5.91 µM | 2.57 | 7.82 µM | 1.62 | 3 µM | 3.47 | 15.5 µM | 2.8 |
| CO[C@H]1[C@H](O)[C@H](O[C@H]2CC[C@@]3(C)[C@H](CC[C@@H]4[C@@H]3CC[C@]3(C)[C@@H](C5=CC(=O)OC5)CC[C@]43O)C2)O[C@@H](C)[C@@H]1O |  | 0.000665 |  | 0.00148 | 0.00233 | 0.0114 µM and 0.0737 µM |  | 0.00255 µM and < 0.0124 µM | 0.00107 |  | 0.00078 |  | 0.00571 µM and 0.0336 µM |  | 0.00183 µM and 0.0166 µM |  | 0.00229 µM and < 0.0113 µM |  | 0.00112 µM and < 0.0107 µM | 0.000406 |
| COc1ccc2cc(C(=O)/C=C/c3cccc(Cl)c3Cl)ccc2c1 | 12.5 | 48.9 | 20.1 | > 100 | 28.4 | > 90.8 µM | 2.13 | > 34.2 µM | > 100 | 10.9 | > 100 | 22.1 | > 79.7 µM | 18.8 | > 92.2 µM | 1 | 19.6 µM | 5.67 | 32.3 µM | 52.6 |
| NC1=NC(c2ccccc2)N=C(Nc2ccccc2)N1 (stereo not given) | > 100 | > 100 | > 100 | > 100 | 34.8 | > 100 µM | > 100 | > 100 µM | > 100 | > 100 | > 100 | > 100 | > 100 µM | 55.1 | > 100 µM | > 100 | > 100 µM | > 100 | > 100 µM | > 100 |
| COc1ccc(/C=C(/C(=O)N2CCCC2)c2cc(OC)c(OC)c(OC)c2)cc1N | 6.52 | 57.8 | 4.63 | > 100 | 2.18 | > 100 µM | 2.28 | > 100 µM | > 100 | 4.14 | > 100 | 9.92 | > 100 µM | 5.44 | > 100 µM | 1.08 | > 100 µM | 4.86 | > 100 µM | 3.19 |
| CN1CCN(c2ccc(-c3cnc4c(-c5csc6ccccc56)cnn4c3)cc2)CC1 | 7.29 | > 15 | 9.79 | > 15 | > 15 | > 15 µM | 3.65 | > 15 µM | > 15 | 3.11 | 11.4 | > 15 | > 15 µM | > 15 | > 15 µM | 3.15 | > 15 µM | 14.8 | > 15 µM | 4.43 |
| Cc1ccc(S(=O)(=O)Oc2ccc3c4c(c(=O)oc3c2)CCCCC4)cc1 | 7.1 | > 100 |  |  | 71.4 | > 100 µM | 3.66 | > 100 µM | > 100 | > 100 | > 100 | 9.26 | > 100 µM | > 100 | > 100 µM | 6 | > 100 µM | > 100 | > 100 µM | 5.18 |
| N#CC1C(=N)Cc2ccccc2-c2ccccc21 (stereo not given) | 8.64 | 38.7 | 4.37 | > 100 | 2.76 | 9.81 µM |  |  | > 100 | 4.58 | > 100 | 10 | 36.6 µM | 7.7 | 51.7 µM | 3.25 | 15.3 µM | 5.55 | 38.8 µM | 4.42 |
| N#C/C(=C\c1ccc(Br)cc1)n1nnc2cccc(F)c21 | 1.45 | 3.1 | 1.62 | 3.02 | 1.41 | 2.87 µM | 0.478 | 1.89 µM | > 100 | 2.8 | 13.2 |  |  | 1.73 | 3.51 µM |  |  | 1.55 | 3.14 µM | 0.444 |
| CN(C)CCNC(=O)c1cccc2cc3ccccc3nc12 | 2.41 | 10.8 | 2.25 | 7.81 | 2.01 | 6.22 µM | 1.25 |  | > 32.1 |  |  | 1.24 | 5.41 µM | 1.65 | 8.18 µM | 0.531 | 4.75 µM | 1.84 | > 19.9 µM | 1.37 |
| Nc1nc2c(c3ncccc13)C(c1cccc(Cl)c1)Cc1ncccc1-2 (stereo not given) | 2.28 | 13.3 | 4.9 | > 100 | 1.12 | 8.17 µM | 1.22 | 20.6 µM | 48.6 | 3.08 | > 100 |  |  | 3.79 | 32.1 µM | 1.36 | 14.5 µM | 5.93 | 44.5 µM | 2.12 |
| N#Cc1c[nH]n2ccnc12 |  | > 100 |  | > 100 |  | > 100 µM |  | > 100 µM | > 100 |  | > 100 |  |  |  | > 100 µM |  | > 100 µM |  | > 100 µM |  |
